According to US6465509B2, “Pyrones as inhibitors of cyclooxygenase-2” (Merck Frosst Canada & Co., priority 2000, dated 2002):

Assays:
COX-2 = biological target: T1, COX-2 (Homo sapiens, UniProt P35354); test: Whole cell assay for COX-2 using CHO[hCOX-2] transfected cell line; assay type: cell-based; design: expressed in transfected cells; host or cells: CHO cells stably transfected with pCDNAIII (CHO[hCOX-2]); settings: CHO[hCOX-2] cells, PGE2 synthesis, 10 μM AA
T1 sequence (P35354 18-604): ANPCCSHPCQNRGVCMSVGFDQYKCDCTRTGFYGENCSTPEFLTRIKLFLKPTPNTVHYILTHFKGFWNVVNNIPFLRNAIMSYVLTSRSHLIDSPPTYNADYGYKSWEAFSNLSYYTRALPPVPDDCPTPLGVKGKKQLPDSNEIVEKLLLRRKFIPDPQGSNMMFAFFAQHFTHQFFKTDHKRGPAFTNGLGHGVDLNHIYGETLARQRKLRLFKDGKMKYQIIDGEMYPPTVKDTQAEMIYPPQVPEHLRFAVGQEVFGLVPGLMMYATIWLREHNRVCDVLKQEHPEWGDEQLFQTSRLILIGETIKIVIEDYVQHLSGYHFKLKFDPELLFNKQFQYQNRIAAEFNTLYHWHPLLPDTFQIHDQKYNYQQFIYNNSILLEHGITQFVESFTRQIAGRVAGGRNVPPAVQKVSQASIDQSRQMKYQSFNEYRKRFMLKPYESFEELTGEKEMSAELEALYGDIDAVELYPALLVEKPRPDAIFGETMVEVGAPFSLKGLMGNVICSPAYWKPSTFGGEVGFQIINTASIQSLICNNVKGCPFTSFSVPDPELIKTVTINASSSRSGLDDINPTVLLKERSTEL
Excerpt: Whole cell assays for COX-2 and COX-1 using CHO transfected cell lines
Chinese hamster ovary (CHO) cell lines which have been stably transfected with an eukaryotic expression vector pCDNAIII containing either the human COX-1 or COX-2 cDNA's are used for the assay. These cell lines are referred to as CHO[hCOX-1] and CHO[hCOX-2], respectively. For cyclooxygenase assays, CHO[hCOX-1] cells from suspension cultures and CHO[hCOX-2] cells prepared by trypsinization of adherent cultures are harvested by centrifugation (300×g, 10 min) and washed once in HBSS containing 15 mM HEPES, pH 7.4, and resuspended in HBSS, 15 mM HEPES, pH 7.4, at a cell concentration of 1.5×10^6 cells/ml. Drugs to be tested are dissolved in DMSO to 66.7-fold the highest test drug concentration. Compounds are typically tested at 8 concentrations in duplicate using serial 3-fold serial dilutions in DMSO of the highest drug concentration. Cells (0.3×10^6 cells in 200 μl) are preincubated with 3 μl of the test drug or DMSO vehicle for 15 min at 37° C. Working solutions of peroxide-free AA (5.5 μM and 110 μM AA for the CHO[hCOX-1] and CHO[COX-2] assays, respectively) are prepared by a 10-fold dilution of a concentrated AA solution in ethanol into HBSS containing 15 mM HEPES, pH 7.4. Cells are then challenged in the presence or absence of drug with the AA/HBSS solution to yield a final concentration of 0.5 μM AA in the CHO[hCOX-1] assay and a final concentration of 10 μM AA in the CHO[hCOX-2] assay. The reaction is terminated by the addition of 10 μl 1N HCl followed by neutralization with 20 μl of 0.5N NaOH. The samples are centrifuged at 300×g at 4° C. for 10 min, and an aliquot of the clarified supernatant is appropriately diluted for the determination of PGE2 levels using an enzyme-linked immunoassay for PGE2 (Correlate PGE2 enzyme immunoassay kit, Assay Designs, Inc.). Cyclooxygenase activity in the absence of test compounds is determined as the difference in PGE2 levels of cells challenged with arachidonic acid versus the PGE2 levels in cells mock-challenged with ethanol vehicle. Inhibition of PGE2 synthesis by test compounds is calculated as a percentage of the activity in the presence of drug versus the activity in the positive control samples.
Compounds of the present invention are inhibitors of cyclooxygenase-2 and are thereby useful in the treatment of cyclooxygenase-2 mediated diseases as enumerated above. The activities of the compounds against cyclooxygenase may be seen in the representative results shown below. In the assay, inhibition is determined by measuring the amount of prostaglandin E2 (PGE2) synthesized in the presence of arachidonic acid, cyclooxygenase-1 or cyclooxygenase-2 and a putative inhibitor. The IC50 values represent the concentration of putative inhibitor required to return PGE2 synthesis to 50% of that obtained as compared to the uninhibited control.

COX-1 = COX-1 (Homo sapiens, UniProt P23219); test: Human whole blood assay, COX-1 (clotting-induced TxB2 production); assay type: cell-based; design: endogenous in cells; host or cells: platelets in fresh human whole blood without anticoagulant; settings: clotting-induced TxB2, 1 hour at 37° C., read-out: COX-1 (IC50 μM) HWB
Method: Human whole blood provides a protein and cell-rich milieu appropriate for the study of biochemical efficacy of anti-inflammatory compounds such as selective COX-2 inhibitors. […] This is consistent with the observation that COX-2 inhibitors have no effect on PGE2 production in normal blood. These inhibitors are active only after incubation of human whole blood with LPS, which induces COX-2. This assay can be used to evaluate the inhibitory effect of selective COX-2 inhibitors on PGE2 production. As well, platelets in whole blood contain a large amount of the COX-1 enzyme. Immediately following blood clotting, platelets are activated through a thrombin-mediated mechanism. This reaction results in the production of thromboxane B2 (TxB2) via activation of COX-1. Thus, the effect of test compounds on TxB2 levels following blood clotting can be examined and used as an index for COX-1 activity. Therefore, the degree of selectivity by the test compound can be determined by measuring the levels of PGE2 after LPS induction (COX-2) and TxB2 following blood clotting (COX-1) in the same assay.
B. COX-1 (Clotting-induced TxB2 production)
Fresh blood is collected into vacutainers containing no anticoagulants. Aliquots of 500 μL are immediately transferred to siliconized microcentrifuge tubes preloaded with 2 μL of either DMSO or a test compound at final concentrations varying from 10 nM to 30 μM. The tubes are vortexed and incubated at 37° C. for 1 hour to allow blood to clot. At the end of incubation, serum is obtained by centrifugation (12,000×g for 5 min.). A 100 μL aliquot of serum is mixed with 400 μL of methanol for protein precipitation. The supernatant is obtained and is assayed for TxB2 using a enzyme immunoassay kit (Cayman, #519031) according to the manufacturer's instruction.

Chain of COX-1 (P23219 24-599): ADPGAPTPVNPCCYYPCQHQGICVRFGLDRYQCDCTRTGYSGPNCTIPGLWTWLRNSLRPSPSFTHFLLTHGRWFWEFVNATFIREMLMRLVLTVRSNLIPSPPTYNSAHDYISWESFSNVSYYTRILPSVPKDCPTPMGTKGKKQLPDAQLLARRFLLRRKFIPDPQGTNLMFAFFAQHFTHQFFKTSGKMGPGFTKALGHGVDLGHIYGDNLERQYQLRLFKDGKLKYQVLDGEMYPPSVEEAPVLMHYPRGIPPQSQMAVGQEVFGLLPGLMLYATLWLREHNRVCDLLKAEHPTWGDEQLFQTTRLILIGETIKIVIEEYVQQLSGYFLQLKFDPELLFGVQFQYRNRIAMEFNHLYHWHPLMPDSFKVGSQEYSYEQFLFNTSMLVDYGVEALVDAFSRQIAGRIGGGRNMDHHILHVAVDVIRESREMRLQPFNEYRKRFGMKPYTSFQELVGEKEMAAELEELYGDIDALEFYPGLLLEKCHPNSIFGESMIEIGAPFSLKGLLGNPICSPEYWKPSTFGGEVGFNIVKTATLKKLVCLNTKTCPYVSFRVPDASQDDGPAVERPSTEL

Row | IC50 (COX-2) | IC50 (COX-1) | SMILES
1 | 0.12 µM | 13 µM | CS(=O)(=O)c1ccc(-c2ccoc(=O)c2-c2ccccc2)cc1 [Example 1, 4-(4-Methylsulfonyl)phenyl-3-phenyl-pyran-2-one]
2 | 0.4 µM | 2 µM | Cc1cc(-c2ccc(S(C)(=O)=O)cc2)c(-c2ccc(F)cc2)c(=O)o1 [Example 2, 3-(4-Fluorophenyl)-6-methyl-4-(4-methylsulfonyl)phenyl-pyran-2-one]
3 | 0.6 µM | 6.9 µM | Cc1cc(-c2ccc(S(C)(=O)=O)cc2)c(-c2cccc(F)c2)c(=O)o1 [Example 3, 3-(3-Fluorophenyl)-6-methyl-4-(4-methylsulfonyl)phenyl-pyran-2-one]
4 | 0.4 µM | 6.3 µM | Cc1cc(-c2ccc(S(C)(=O)=O)cc2)c(-c2ccccc2)c(=O)o1 [Example 4, 6-Methyl-4-(4-methylsulfonyl)phenyl-3-phenyl-pyran-2-one]
5 | 0.2 µM | – | CS(=O)(=O)c1ccc(-c2cc(C(F)F)oc(=O)c2-c2ccccc2)cc1 [Example 5, 6-Difluoromethyl-4-(4-methylsulfonyl)phenyl-3-phenyl-pyran-2-one]
6 | 1.1 µM | – | CS(=O)(=O)c1ccc(-c2cc(CF)oc(=O)c2-c2ccccc2)cc1 [Example 6, 6-Fluoromethyl-4-(4-methylsulfonyl)phenyl-3-phenyl-pyran-2-one]
7 | 0.14 µM | 16 µM | Cc1cc(-c2ccc(S(C)(=O)=O)cc2)c(Sc2ccccc2)c(=O)o1 [Example 7, 6-Methyl-4-(4-(methylsulfonyl)phenyl)-3-phenylthio-pyran-2-one]
8 | 0.2 µM | 13 µM | Cc1cc(-c2ccc(S(C)(=O)=O)cc2)c(Oc2ccccc2)c(=O)o1 [Example 8, 6-Methyl-4-(4-(methylsulfonyl)phenyl)-3-phenoxy-pyran-2-one]
9 | 2.9 µM | 16 µM | Cc1cc(-c2ccc(S(C)(=O)=O)cc2)c(-c2cccnc2)c(=O)o1 [Example 9]
10 | 0.8 µM | – | Cc1cc(-c2ccc(S(C)(=O)=O)cc2)c(SC(C)C)c(=O)o1 [Example 10, 3-Isopropylthio-6-methyl-4-(4-(methylsulfonyl)phenyl)-pyran-2-one]
11 | 0.01 µM | – | CS(=O)(=O)c1ccc(-c2cc(C(F)(F)F)oc(=O)c2Sc2ccccc2)cc1 [Example 11, 4-(4-(Methylsulfonyl)phenyl)-3-phenylthio-6-trifluoromethyl-pyran-2-one]
12 | 0.06 µM | – | CC(C)Sc1c(-c2ccc(S(C)(=O)=O)cc2)cc(C(F)(F)F)oc1=O [Example 12, 3-Isopropylthio-4-(4-(methylsulfonyl)phenyl)-6-trifluoromethyl-pyran-2-one]
13 | 2.8 µM | – | Cc1cc(-c2ccc(S(C)(=O)=O)cc2)c(CCC(C)(C)O)c(=O)o1 [Example 14, 3-(3-Hydroxy-3-methylbutyl)-6-methyl-4-(4-methylsulfonyl)phenyl-pyran-2-one]
